Assay results taken from patent US20260216346A1, “COMPOUND, NANOPARTICLES, MEDICINE, AND METHOD FOR PRODUCING NANOPARTICLES” (priority 2022, published 2026).
“Also recorded” adds a separate entry of the source.

Tests used:
[1] = Drug release test in PBS under reduced glutathione treatment; assay type: physicochemical; conditions: nanoparticles 50 μM, PBS(−)/EtOH (7/3) pH 7.4 with 10 mM reduced GSH, 37° C., 1, 6, 24 or 48 hours, HPLC
Procedure: In the present test, the release of SN-38 from compound (1-1) and compounds (2-1) to (2-3) in PBS to which the reduced GSH was added was evaluated.
A reaction solution was prepared by adding the aqueous dispersion liquid (50 μM, 500 μL) of the nanoparticles of compound (1-1) or the aqueous dispersion liquid (50 μM, 500 μL) of the nanoparticles of any one of compounds (2-1) to (2-3) to 500 μL of PBS(−)/EtOH (7/3) (pH: 7.4) to which 10 mM of reduced glutathione (GSH) had been added.
The above-described reaction solution was incubated at 37° C. for 1 hour, 6 hours, 24 hours, or 48 hours. 200 μL of the reaction solution was collected after the incubation. The collected reaction solution was mixed with 800 μL of a 3% acetic acid solution of acetonitrile/methanol (1/1). The obtained mixed solution was analyzed by high-performance liquid chromatography (detection wavelength: 365 nm) as an analysis target sample.

[2] = Particle diameter of nanoparticles by SEM and DLS; assay type: physicochemical; conditions: aqueous dispersion liquid, 0.05 mM
Procedure: 100 μL of a dimethyl sulfoxide solution of compound (1-1), prepared at 5 mM, was injected into 10 mL of water at room temperature using a syringe, and the mixture was stirred at 1,500 rpm for 2 seconds to obtain an aqueous dispersion liquid of nanoparticles. The final concentration of compound (1-1) in the aqueous dispersion liquid of the nanoparticles was 0.05 mM. It was confirmed by SEM and DLS that a particle diameter thereof was approximately 100 nm. […] A ClogP of compound (1-1) was 5.92.

[3] = test system: human breast cancer cell line MCF-7; assay: In vitro activity test: cell viability, Cell Counting Kit-8; assay type: cell-based; conditions: nanoparticle dispersion, 0.04 to 10 µM (in terms of SN-38), 48 hours, FIG. 2
Procedure: A human breast cancer cell line MCF-7 was suspended in Dulbecco's modified Eagle's medium (DMEM) to which 10% fetal bovine serum (FBS) was added, thereby preparing a cell suspension of 2×10^5 cells/mL. The above-described cell suspension was seeded on a 96-well plate at 100 μL per well. The next day, the aqueous dispersion liquid of the nanoparticles of compound (1-1), the aqueous dispersion liquid of the nanoparticles of compound (2-1), or the aqueous dispersion liquid of the nanoparticles of SN-38, prepared as described above, was added to the MCF-7 cell culture solution so that the concentration thereof was 0.04 to 10 µM (in terms of SN-38). Thereafter, the cells were cultured at 37° C. and 5% CO2 for 48 hours. Thereafter, cell viability was measured by a colorimetric method using Cell Counting Kit-8 (manufactured by DOJINDO LABORATORIES.) and a microplate reader.

[4] = Drug release test in PBS under reduced dithiothreitol treatment (1); assay type: physicochemical; conditions: nanoparticles 5 μM, PBS (-) pH 7.4 with 10 mM reduced DTT, 37° C., 1 hour or 24 hours, HPLC
Procedure: In the present test, the release of SN-38 from compound (1-1) and compound (2-1) in PBS to which reduced DTT was added was evaluated.
A solution was prepared by adding an aqueous dispersion liquid (5 μM, 500 μL) of nanoparticles of compound (1-1) or an aqueous dispersion liquid (5 μM, 500 μL) of nanoparticles of compound (2-1) to 500 µL of PBS (-) to which 10 mM of reduced dithiothreitol (DTT) had been added. “PBS (-)” used hereinafter is phosphate-buffered saline (pH: 7.4) containing NaCl (137 mM), KCl (2.7 mM), Na2HPO4 (10 mM), and KH2PO4 (1.76 mM).
The above-described reaction solution was incubated at 37° C. for 1 hour or 24 hours. 200 μL of the reaction solution after incubation was collected. The collected reaction solution was mixed with 800 μL of a 3% acetic acid solution of acetonitrile/methanol (1/1). The obtained mixed solution was analyzed by high-performance liquid chromatography (detection wavelength: 365 nm) as an analysis target sample.

CCc1c2c(nc3ccc(OC(=O)C(C)(C)CCSSCCC(C)(C)C(=O)Oc4ccc5nc6c(c(CC)c5c4)Cn4c-6cc5c(c4=O)COC(=O)[C@]5(O)CC)cc13)-c1cc3c(c(=O)n1C2)COC(=O)[C@]3(O)CC [Compound (1-1)]
release of SN-38 [1]: compound (1-1) was reduced and SN-38 was increased with the passage of time
particle diameter of nanoparticles [2]: approximately 100 nm
cell viability of MCF-7 [3]: higher cell viability of MCF-7 compared with SN-38; also recorded: lower than that of compound (2-1)
release of SN-38 [4]: SN-38 was released
